ChEMBL document CHEMBL5154747, “Discovery of new carbonic anhydrase IX inhibitors as anticancer agents by toning the hydrophobic and hydrophilic rims of the active site to encounter the dual-tail approach” (Eur J Med Chem, 2022)

What follows are compounds tested on RXF 393 (assay: Anticancer activity against human RXF 393 cells assessed as cell growth inhibition at 10 uM incubated for 48 hrs by SRB assay relative to control). Conditions: read-out: GI.
Type: functional
`Cc1nn(-c2ccccc2)cc1/C=N/Nc1nc(Nc2ccccc2)nc(Nc2ccc(S(N)(=O)=O)cc2)n1` showed an inhibition of growth at 10 µM of 120%.

Each compound was assayed on HCT-116 (assay: Anticancer activity against human HCT-116 cells assessed as cell growth inhibition at 10 uM incubated for 48 hrs by SRB assay relative to control). Conditions: read-out: GI.
Type: functional
Work on `Cc1nn(-c2ccccc2)cc1/C=N/Nc1nc(Nc2ccccc2)nc(Nc2ccc(S(N)(=O)=O)cc2)n1` yielded an inhibition of growth at 10 µM of 59%.

What follows are compounds tested on SK-MEL-5 (assay: Anticancer activity against human SK-MEL-5 cells assessed as cell growth inhibition at 10 uM incubated for 48 hrs by SRB assay relative to control). Conditions: read-out: GI.
Type: functional
Work on `Cc1nn(-c2ccccc2)cc1/C=N/Nc1nc(Nc2ccccc2)nc(Nc2ccc(S(N)(=O)=O)cc2)n1` yielded an inhibition of growth at 10 µM of 144%.

Each compound was assayed on UO-31 (assay: Anticancer activity against human UO-31 cells assessed as cell growth inhibition at 10 uM incubated for 48 hrs by SRB assay relative to control). Conditions: read-out: GI.
Type: functional
In the case of `Cc1nn(-c2ccccc2)cc1/C=N/Nc1nc(Nc2ccccc2)nc(Nc2ccc(S(N)(=O)=O)cc2)n1`, the inhibition of growth at 10 µM is reported as 104%.

What follows are compounds tested on OVCAR-5 (assay: Anticancer activity against human OVCAR-5 cells assessed as cell growth inhibition at 10 uM incubated for 48 hrs by SRB assay relative to control). Conditions: read-out: GI.
Type: functional
In the case of `Cc1nn(-c2ccccc2)cc1/C=N/Nc1nc(Nc2ccccc2)nc(Nc2ccc(S(N)(=O)=O)cc2)n1`, the inhibition of growth at 10 µM is reported as 113%.

The compounds below were run on COLO 205 (assay: Anticancer activity against human COLO 205 cells assessed as cell growth inhibition at 10 uM incubated for 48 hrs by SRB assay relative to control). Conditions: read-out: GI.
Type: functional
`Cc1nn(-c2ccccc2)cc1/C=N/Nc1nc(Nc2ccccc2)nc(Nc2ccc(S(N)(=O)=O)cc2)n1` showed an inhibition of growth at 10 µM of 122%.

What follows are compounds tested on SK-MEL-28 (assay: Anticancer activity against human SK-MEL-28 cells assessed as cell growth inhibition at 10 uM incubated for 48 hrs by SRB assay relative to control). Conditions: read-out: GI.
Type: functional
Compound `Cc1nn(-c2ccccc2)cc1/C=N/Nc1nc(Nc2ccccc2)nc(Nc2ccc(S(N)(=O)=O)cc2)n1` has an inhibition of growth at 10 µM of 113%.

The compounds below were run on OVCAR-3 (assay: Anticancer activity against human OVCAR-3 cells assessed as cell growth inhibition at 10 uM incubated for 48 hrs by SRB assay relative to control). Conditions: read-out: GI.
Type: functional
`Cc1nn(-c2ccccc2)cc1/C=N/Nc1nc(Nc2ccccc2)nc(Nc2ccc(S(N)(=O)=O)cc2)n1` gave an inhibition of growth at 10 µM of 131%.

Each compound was assayed on HOP-92 (assay: Anticancer activity against human HOP-92 cells assessed as cell growth inhibition at 10 uM incubated for 48 hrs by SRB assay relative to control). Conditions: read-out: GI.
Type: functional
`Cc1nn(-c2ccccc2)cc1/C=N/Nc1nc(Nc2ccccc2)nc(Nc2ccc(S(N)(=O)=O)cc2)n1` showed an inhibition of growth at 10 µM of 113%.

What follows are compounds tested against Carbonic anhydrase 9 (Homo sapiens, UniProt Q16790) (assay: Inhibition of recombinant human CA 9 preincubated for 15 mins by phenol red dye based stopped flow CO2 hydration assay). Conditions: not given.
For `Cc1nn(-c2ccccc2)cc1/C=N/Nc1nc(Nc2ccccc2)nc(Nc2ccc(S(N)(=O)=O)cc2)n1`, the Ki was 0.207 µM.

These compounds were tested on CCRF-CEM (assay: Anticancer activity against human CCRF-CEM cells assessed as cell growth inhibition at 10 uM incubated for 48 hrs by SRB assay relative to control). Conditions: read-out: GI.
Type: functional
`Cc1nn(-c2ccccc2)cc1/C=N/Nc1nc(Nc2ccccc2)nc(Nc2ccc(S(N)(=O)=O)cc2)n1` gave an inhibition of growth at 10 µM of 91%.

What follows are compounds tested on HCC 2998 (assay: Anticancer activity against human HCC 2998 cells assessed as cell growth inhibition at 10 uM incubated for 48 hrs by SRB assay relative to control). Conditions: read-out: GI.
Type: functional
With `Cc1nn(-c2ccccc2)cc1/C=N/Nc1nc(Nc2ccccc2)nc(Nc2ccc(S(N)(=O)=O)cc2)n1` the inhibition of growth at 10 µM was 117%.

The compounds below were run on NCI-H460 (assay: Anticancer activity against human NCI-H460 cells assessed as cell growth inhibition at 10 uM incubated for 48 hrs by SRB assay relative to control). Conditions: read-out: GI.
Type: functional
Compound `Cc1nn(-c2ccccc2)cc1/C=N/Nc1nc(Nc2ccccc2)nc(Nc2ccc(S(N)(=O)=O)cc2)n1` has an inhibition of growth at 10 µM of 135%.

These compounds were tested on U-251 (assay: Anticancer activity against human U-251 cells assessed as cell growth inhibition at 10 uM incubated for 48 hrs by SRB assay relative to control). Conditions: read-out: GI.
Type: functional
With `Cc1nn(-c2ccccc2)cc1/C=N/Nc1nc(Nc2ccccc2)nc(Nc2ccc(S(N)(=O)=O)cc2)n1` the inhibition of growth at 10 µM was 122%.

Each compound was assayed on SNB-19 (assay: Anticancer activity against human SNB-19 cells assessed as cell growth inhibition at 10 uM incubated for 48 hrs by SRB assay relative to control). Conditions: read-out: GI.
Type: functional
For `Cc1nn(-c2ccccc2)cc1/C=N/Nc1nc(Nc2ccccc2)nc(Nc2ccc(S(N)(=O)=O)cc2)n1`, the inhibition of growth at 10 µM was 92%.

These compounds were tested on IGROV-1 (assay: Anticancer activity against human IGROV-1 cells assessed as cell growth inhibition at 10 uM incubated for 48 hrs by SRB assay relative to control). Conditions: read-out: GI.
Type: functional
`Cc1nn(-c2ccccc2)cc1/C=N/Nc1nc(Nc2ccccc2)nc(Nc2ccc(S(N)(=O)=O)cc2)n1` gave an inhibition of growth at 10 µM of 86%.

These compounds were tested on SW-620 (assay: Anticancer activity against human SW-620 cells assessed as cell growth inhibition at 10 uM incubated for 48 hrs by SRB assay relative to control). Conditions: read-out: GI.
Type: functional
`Cc1nn(-c2ccccc2)cc1/C=N/Nc1nc(Nc2ccccc2)nc(Nc2ccc(S(N)(=O)=O)cc2)n1` showed an inhibition of growth at 10 µM of 114%.

What follows are compounds tested on CAKI-1 (assay: Anticancer activity against human CAKI-1 cells assessed as cell growth inhibition at 10 uM incubated for 48 hrs by SRB assay relative to control). Conditions: read-out: GI.
Type: functional
For `Cc1nn(-c2ccccc2)cc1/C=N/Nc1nc(Nc2ccccc2)nc(Nc2ccc(S(N)(=O)=O)cc2)n1`, the inhibition of growth at 10 µM was 127%.

What follows are compounds tested on MDA-MB-468 (assay: Anticancer activity against human MDA-MB-468 cells assessed as cell growth inhibition at 10 uM incubated for 48 hrs by SRB assay relative to control). Conditions: read-out: GI.
Type: functional
With `Cc1nn(-c2ccccc2)cc1/C=N/Nc1nc(Nc2ccccc2)nc(Nc2ccc(S(N)(=O)=O)cc2)n1` the inhibition of growth at 10 µM was 137%.

Each compound was assayed on HT-29 (assay: Anticancer activity against human HT-29 cells assessed as cell growth inhibition at 10 uM incubated for 48 hrs by SRB assay relative to control). Conditions: read-out: GI.
Type: functional
Work on `Cc1nn(-c2ccccc2)cc1/C=N/Nc1nc(Nc2ccccc2)nc(Nc2ccc(S(N)(=O)=O)cc2)n1` yielded an inhibition of growth at 10 µM of 94%.
